In general, EC50 refers to the concentration that produces a half-maximal response.

The structures appear in SMILES notation.

The test system of this assay is phosphorylated HS1. Description: Phosphorylated HS1 in human CD8+ T cells from whole blood in vitro (flow cytometry). In kind it is cell-based. The procedure:
To assess these candidate clinical proximal biomarkers of Cbl-b inhibition on T cells, pharmacodynamic analysis was performed. Whole blood was obtained from human donors and incubated with increasing concentrations of Compound 23. The response to Cbl-b inhibition on phosphorylated HS1, PLCγ2, and ZAP70 was measured in CD8^+ T cells using flow cytometry. This technique is highly quantitative and can measure multiple phosphorylation markers in different cell populations within the same sample.
For pharmacodynamic analysis, whole blood was obtained from six human donors (BioIVT) and used for flow cytometry assays to evaluate phosphorylated biomarkers HS1, PLCγ2, and ZAP70 in CD8^+ T cells.
Whole blood was collected in a collection tube coated with sodium heparin. […]
Stained cells were run on an Attune NxT Acoustic Focusing Flow Cytometer (Thermo Fisher, cat. No. A29004), and data was analyzed using FlowJo (v10.6.1) and GraphPad Prism (v8.00) software. Single lymphocytes were gated for CD8^+ cells (CD45^+/CD8^+) cells, and population frequencies were calculated for each population. The data is quantified by the percent positive. […] As protein becomes phosphorylated the fluorescence increases resulting in a larger fraction of the cells entering that gate. Each population was evaluated for % positive pY759-PLCγ2, pY397-HS1 levels, pY319/Syk (Y352)-ZAP70 levels. […]
On the technique in general: A flow cytometer gives signals particle by particle.

As for `C[C@H]1CCCN(Cc2cc3c(c(C(F)(F)F)c2)CN(c2cccc([C@]4(c5nncn5C)C[C@@H](C)C4)c2)C3=O)C1` [Compound 23], under “T-cell, whole blood from six human donors, 2 hrs 37° C., anti-CD3/anti-CD28 + crosslinker 60 minutes, CD8+ T cells, read-out: Average mean EC50±standard deviation, phosphorylated HS1”, the EC50 stood at 89 ± 7.91 nM. Besides, under “human donors n=6, two hours at 37° C., anti-CD3 and anti-CD28 co-stimulation, crosslinked”, the “phosphorylated HS1 in human whole blood (FIG. 7)” value was “concentration-dependent increase”.

The record behind these values is patent publication US20230355599A1, “BIOMARKERS FOR CBL, AND COMPOSITIONS AND METHODS FOR THEIR USE” (NURIX THERAPEUTICS, INC., priority 2022, published 2023).
